Reference: ChEMBL document CHEMBL1201862, “PubChem BioAssay data set” (2004)
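In this assay, cells in 96-well plates receive the compound at five concentrations for 48 hours. Endpoints are linearly interpolated between the surrounding concentrations. GI50 marks 50% less growth.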 Active and inactive are the calls of the source. No stated cut-off is given here; in the data, active = GI50 up to about 1.1 µM and inactive = higher.

Legend:
Experiment in all cases: growth of human tumour cells (NCI), 48 h
[1] = tested on: EKVX
[2] = tested on: HCC 2998
[3] = tested on: HCT-15
[4] = tested on: HL-60
[5] = tested on: HOP-92
[6] = tested on: Hs-578T
[7] = tested on: K562
[8] = tested on: KM12
[9] = tested on: NCI-H23
[10] = tested on: OVCAR-3
[11] = tested on: RPMI-8226
[12] = tested on: RXF 393
[13] = tested on: SF-268
[14] = tested on: SK-MEL-5
[15] = tested on: SK-OV-3
[16] = tested on: SN12C
[17] = tested on: SNB-19
[18] = tested on: SNB-75
[19] = tested on: UACC-257
[20] = tested on: UACC-62

| SMILES | GI50 [1] | GI50 [2] | GI50 [3] [µM] | GI50 [4] | GI50 [5] | GI50 [6] | GI50 [7] | GI50 [8] | GI50 [9] | GI50 [10] | GI50 [11] | GI50 [12] | GI50 [13] | GI50 [14] | GI50 [15] | GI50 [16] | GI50 [17] | GI50 [18] | GI50 [19] | GI50 [20] |
| --- | --- | --- | --- | --- | --- | --- | --- | --- | --- | --- | --- | --- | --- | --- | --- | --- | --- | --- | --- | --- |
| Cc1ccc2c(c1)C=CC1(O2)N(c2ccccc2)C(=S)OC1(C)C (stereo not given) | 30 µM (inactive) | 76.9 µM (inactive) | 46.2 | 5.37 µM (inactive) | 12 µM (inactive) | 31.9 µM (inactive) | 7.29 µM (inactive) | 34.5 µM (inactive) | 35.4 µM (inactive) | 29.6 µM (inactive) | 22.9 µM (inactive) | 73.3 µM (inactive) | 89.5 µM (inactive) | 32.1 µM (inactive) | 21.4 µM (inactive) | > 100 µM (inactive) | > 100 µM (inactive) | > 100 µM (inactive) | 45.1 µM (inactive) | 40.9 µM (inactive) |
| CC(=O)O[C@H]1C(=O)[C@@]2(C)[C@H]([C@H](OC(=O)c3ccccc3)[C@]3(O)C[C@H](OC(=O)[C@H](O)[C@@H](NC(=O)c4ccoc4)c4ccccc4)C(C)=C1C3(C)C)[C@]1(OC(C)=O)CO[C@@H]1C[C@@H]2O | 0.897 µM (active) | 0.0216 µM (active) | 0.757 | 0.0136 µM (active) | 0.552 µM (active) | 0.0246 µM (active) | 0.016 µM (active) | < 0.01 µM (active) | 0.0261 µM (active) | < 0.01 µM (active) | 0.00871 µM (active) | < 0.01 µM (active) | 0.0325 µM (active) | 0.028 µM (active) | 0.358 µM (active) | 0.0338 µM (active) | 0.0946 µM (active) | 0.0112 µM (active) | 16 µM (inactive) | 0.0776 µM (active) |
| O=C1c2cccnc2C(=O)c2c1nc1ccccc1c2-c1ccc2c3c(nc4ccccc42)C(=O)c2cccnc2-c13 | 0.94 µM (active) | 1.59 µM (inactive) | 0.195 | 1.2 µM (inactive) | 10.5 µM (inactive) | 1.81 µM (inactive) | 1.58 µM (inactive) | 0.971 µM (active) | 1.06 µM (active) | 0.244 µM (active) | 1.63 µM (inactive) | 0.838 µM (active) | 0.52 µM (active) | 0.467 µM (active) | 1.85 µM (inactive) | 0.912 µM (active) | 1.84 µM (inactive) | 2.07 µM (inactive) | 2.04 µM (inactive) | 1.73 µM (inactive) |
| O=C(OC12CC3CC(CC(C3)C1)C2)c1ccc(NCc2cc(O)ccc2O)cc1 | 0.843 µM (active) | 1.7 µM (inactive) | 0.435 | 0.0491 µM (active) | 0.34 µM (active) | 0.982 µM (active) | 0.622 µM (active) | 1.16 µM (inactive) | 1.07 µM (active) | 0.743 µM (active) | 0.0966 µM (active) | 0.288 µM (active) | 1.75 µM (inactive) | 1.24 µM (inactive) | 2.99 µM (inactive) | 1.42 µM (inactive) | 2.31 µM (inactive) | 0.607 µM (active) | 1.24 µM (inactive) | 1.3 µM (inactive) |
| Cc1ccccc1OC(C)C(=O)NN1C(=O)CC(=O)N(c2ccccc2)C1=S (stereo not given) | 75.7 µM (inactive) | 70.8 µM (inactive) | 51.3 | 10.4 µM (inactive) | 37.3 µM (inactive) | > 100 µM (inactive) | 41.4 µM (inactive) | 75.5 µM (inactive) | 88.1 µM (inactive) | 53.2 µM (inactive) | 43.3 µM (inactive) | 61.4 µM (inactive) | 76.6 µM (inactive) | 60.3 µM (inactive) | > 100 µM (inactive) | 43.7 µM (inactive) | 24 µM (inactive) | 48.3 µM (inactive) | 58.3 µM (inactive) | 54.1 µM (inactive) |
| O=C(O)c1cc(O)nc(S)n1 | > 100 µM (inactive) | > 100 µM (inactive) | > 100 | > 100 µM (inactive) | > 100 µM (inactive) | > 100 µM (inactive) | > 100 µM (inactive) | > 100 µM (inactive) | > 100 µM (inactive) | > 100 µM (inactive) | > 100 µM (inactive) | > 100 µM (inactive) | > 100 µM (inactive) | > 100 µM (inactive) | > 100 µM (inactive) | > 100 µM (inactive) | > 100 µM (inactive) | 94.2 µM (inactive) | > 100 µM (inactive) | > 100 µM (inactive) |
| N=C(N)NS(=O)(=O)c1ccc(NC(=O)c2cccc3c(NNc4ccc(S(N)(=O)=O)cc4)c4ccccc4nc23)cc1 | 47.4 µM (inactive) | > 100 µM (inactive) | 38.9 | 30.6 µM (inactive) | 25.3 µM (inactive) | 59.4 µM (inactive) | 26.6 µM (inactive) | 50.7 µM (inactive) | > 100 µM (inactive) | 36.1 µM (inactive) | 39.6 µM (inactive) | > 100 µM (inactive) | 73.5 µM (inactive) | 55.6 µM (inactive) | > 100 µM (inactive) | 99.3 µM (inactive) | > 100 µM (inactive) | > 100 µM (inactive) | > 100 µM (inactive) | > 100 µM (inactive) |
| Cc1ccc2ccc3ccc(C)nc3c2n1 [NEOCUPROINE] | > 100 µM (inactive) | 6.38 µM (inactive) | > 71.6 | 0.353 µM (active) | > 100 µM (inactive) | > 100 µM (inactive) | 0.542 µM (active) | 12.5 µM (inactive) | 0.439 µM (active) | 0.344 µM (active) | > 100 µM (inactive) | > 42 µM (inactive) | > 87.9 µM (inactive) | > 26.2 µM (inactive) | > 100 µM (inactive) | > 100 µM (inactive) | > 100 µM (inactive) | > 52 µM (inactive) | 1.86 µM (inactive) | 3.03 µM (inactive) |
| Cc1ccc(C)n1-c1ccccc1C1C=Cn2c(=O)oc3c(OC(C)C)c(OC(C)C)c(O)c1c32 (stereo not given) | 23.1 µM (inactive) | 8.57 µM (inactive) | 15.7 | 8.75 µM (inactive) | 24.9 µM (inactive) | 56 µM (inactive) | 4.67 µM (inactive) | 8.11 µM (inactive) | 13.3 µM (inactive) | 27.5 µM (inactive) | 4.9 µM (inactive) | 7.78 µM (inactive) | 43.8 µM (inactive) | 14.4 µM (inactive) | > 100 µM (inactive) | 76.6 µM (inactive) | > 100 µM (inactive) | 28.1 µM (inactive) | 17.1 µM (inactive) | 22.8 µM (inactive) |
| COC12C=CC(CC1)C(C)(C)C2=O (stereo not given) | > 100 µM (inactive) | > 100 µM (inactive) | > 100 | > 100 µM (inactive) | > 100 µM (inactive) | > 100 µM (inactive) | > 100 µM (inactive) | > 100 µM (inactive) | > 100 µM (inactive) | > 100 µM (inactive) | > 100 µM (inactive) | > 100 µM (inactive) | > 100 µM (inactive) | > 100 µM (inactive) | > 100 µM (inactive) | > 100 µM (inactive) | > 100 µM (inactive) | > 100 µM (inactive) | > 100 µM (inactive) | > 100 µM (inactive) |
| O=C[C@@H](CO)O[C@H](C=O)c1c[nH]c(=O)[nH]c1=O | 75.7 µM (inactive) | 98.4 µM (inactive) | 57.8 | 22.3 µM (inactive) | 81.1 µM (inactive) | 100 µM (inactive) | 66.1 µM (inactive) | 93.3 µM (inactive) | 69.3 µM (inactive) | 68.4 µM (inactive) | 53.8 µM (inactive) | 54.8 µM (inactive) | 102 µM (inactive) | 83.9 µM (inactive) | 112 µM (inactive) | 83 µM (inactive) | 129 µM (inactive) | 182 µM (inactive) | 104 µM (inactive) | 72.8 µM (inactive) |
| CCc1cccc(CC)c1NC(=O)C(C#N)C1=C(Cl)C(=O)c2ccccc2C1=O (stereo not given) | 21.1 µM (inactive) | 16.9 µM (inactive) | 20.6 | 1.3 µM (inactive) | 2.96 µM (inactive) | < 0.01 µM (active) | 2.33 µM (inactive) | 18.9 µM (inactive) | 13 µM (inactive) | 16.8 µM (inactive) | 4.56 µM (inactive) | 16.3 µM (inactive) | 16.6 µM (inactive) | 14.7 µM (inactive) | 19.7 µM (inactive) | 16.7 µM (inactive) | 18.1 µM (inactive) | 5.18 µM (inactive) | 17.4 µM (inactive) | 17.5 µM (inactive) |
